Laboratory results published in ChEMBL document CHEMBL1148589, “Rationally designed nucleoside antibiotics that inhibit siderophore biosynthesis of Mycobacterium tuberculosis” (J Med Chem, 2006).
In brackets after ≈: the same amount, converted by molar mass.

Experiments:
[1] = system: Mycobacterium tuberculosis; experiment: Inhibitory activity against Mycobacterium tuberculosis H37Rv; format: functional
[2] = system: P388; experiment: Cytotoxicity against P388 murine leukemia cell line at 100-200 uM; format: functional; conditions: Mus musculus, read-out: ED50 (the source's name)
[3] = Dissociation constant, pKa of the compound; format: physicochemical
[4] = Therapeutic index (ED50/MIC50); format: cell-based; conditions: mouse, P388 cells; read-out: Ratio ED50/MIC50

SMILES | MIC50 [1] | MIC99 [1] | EC50 [2] | pKa [3] | selectivity ratio [4]
Nc1ccccc1C(=O)NS(=O)(=O)OC[C@H]1O[C@@H](n2cnc3c(N)ncnc32)[C@H](O)[C@@H]1O | 30.9 µM (≈ 14.4 µg/mL) | > 100 µM | > 100 µg/mL | – | –
NNC(=O)c1ccncc1 [ISONIAZID] | – | 0.18 µM (≈ 0.0247 µg/mL) | – | – | –
Nc1ncnc2c1ncn2[C@@H]1O[C@H](COS(=O)(=O)NC(=O)c2ccccc2O)[C@@H](O)[C@H]1O | 0.091 µM (≈ 0.0424 µg/mL) | 0.29 µM (≈ 0.135 µg/mL) | > 100 µg/mL | – | –
Nc1ncnc2c1ncn2[C@@H]1O[C@H](COP(=O)(O)CC(=O)c2ccccc2O)[C@@H](O)[C@H]1O | > 100 µM | > 100 µM | > 100 µg/mL | 2 | –
Nc1ncnc2c1ncn2[C@@H]1O[C@H](COS(=O)(=O)NCc2ccccc2O)[C@@H](O)[C@H]1O | > 100 µM | > 100 µM | > 100 µg/mL | 8.5 | –
Nc1ncnc2c1ncn2[C@@H]1O[C@H](CNS(=O)(=O)NC(=O)c2ccccc2O)[C@@H](O)[C@H]1O | 0.077 µM (≈ 0.0358 µg/mL) | 0.19 µM (≈ 0.0884 µg/mL) | > 100 µg/mL | – | > 900
Nc1ncnc2c1ncn2[C@@H]1O[C@H](COS(=O)(=O)NC(=O)c2ccccc2)[C@@H](O)[C@H]1O | 4.5 µM (≈ 2.03 µg/mL) | 12.5 µM (≈ 5.63 µg/mL) | > 100 µg/mL | 2.8 | –
Nc1ncnc2c1ncn2[C@@H]1O[C@H](Cn2cc(C(=O)c3ccccc3O)nn2)[C@@H](O)[C@H]1O | > 100 µM | > 100 µM | > 100 µg/mL | – | –
